Data published in patent publication US20220152080A1 (priority 2019, published 2022).

Assays:
[1] = tested on: viral NP protein (Serine residues 269 and 392); type: cell-based, influenza A virus
RSK1 [2] = type: cell-based
[3] = tested on: vRNP nuclear export (viral NP protein), WSN/H1N1; type: cell-based, influenza A virus
[4] = tested on: RanBP1 (Crm1 export pathway); type: cell-based
WSN/H1N1 = type: cell-based, influenza A virus; details: read-out: EC50 (progeny virus titers)
[5] = biological target: p90 ribosomal S6 kinase (N-terminal kinase domain); details: cited from earlier work
MCF-7 = details: cited from earlier work
RSK substrate p140 = details: not that of RSK or RSK upstream kinases even at 100 μM; cited from earlier work
ERK1/2 [6] = experiment: TPA stimulation: nuclear localization of ERK1/2 in A549 cells; type: cell-based; details: A549, TPA-stimulated, 1 h; unstimulated 27.99%±1.97%
Experimental: (§1) (A,C) A549 cells were stimulated with TPA (200 nM). The solvent DMSO served as negative control. After 1 h the cells were fixed and cellular localization of RSK2 or ERK1/2 (Alexa-561) was analyzed by epifluorescence microscopy. Nuclei were stained with Dapi. Dashed squares indicate zoom-in areas. Shown are representative epifluorescence microscopy pictures of single focal planes. Results of one out of three independent experiments are shown. Scale bar represents 50 μm.(B,D) Quantification of the cellular localization of RSK2 or ERK1/2 from (A,C). 15 epifluorescence microscopy pictures of each sample were analyzed in terms of the RSK2 localization using the ImageJ “Intensity Ratio Nuclei Cytoplasm Tool”. Results are depicted as means±SD of three independent experiments. Statistical significance was analyzed by unpaired t-test with Welch's correction (**p≤0.01).
(§2) To exclude unspecific staining of RSK2 and ERK1/2 the Raf/MEK/ERK-pathway was stimulated with TPA. It is known that the incubation with TPA leads to the activation of the Raf/MEK/ERK-pathway resulting in the nuclear localization of ERK1/2 and RSKs within minutes after the stimulation. […] After 1 h the cells were fixed and cellular localization of RSK2 or ERK1/2 (Alexa-561) was analyzed by epifluorescence microscopy. […] Statistical significance was analyzed by unpaired t-test with Welch's correction (**p≤0.01). […]

RSK2 = experiment: TPA stimulation: nuclear localization of RSK2 in A549 cells; type: cell-based; details: A549, TPA-stimulated, 1 h; unstimulated 29.37%±1.15%
Experimental: as §1, §2

[7] = tested on: WSN/H1N1, PR8M/H1N1, pdm09Hamburg/H1N1, Panama/H3N2, KAN-1/H5N1, Anhui/H7N9, SC35M/H7N7, B/Lee; type: cell-based, influenza A and B viruses; details: 15 μM, 24 h p.i., MOI 0.01, A549 or MDCKII cells, DMSO control = 100%
[8] = tested on: vRNPs of WSN/H1N1, PR8M/H1N1, pdm09Hamburg/H1N1, Panama/H3N2, KAN-1/H5N1, Anhui/H7N9, SC35M/H7N7, B/Lee; type: cell-based, influenza A and B viruses; details: 15 μM, treated 3 h p.i., fixed 9 h or 12 h p.i., MOI 5
GSK-3β = type: cell-based
vRNP-M1 interaction = type: cell-based, influenza A virus
ERK1/2 [9] = type: cell-based
RSK1 [10] = details: in vitro; cited from earlier work

## O=C(NOCC1CC1)c1ccc(F)c(F)c1Nc1ccc(I)cc1Cl [CI-1040]
[1]
  phosphorylation state of NP Serine residues 269 and 392: decreased phosphorylation state
RSK1 [2]
  virus induced RSK activation: blocked

## CCC(=C/[C@H](C)C/C=C/C(C)=C/[C@@H](C)C(=O)[C@@H](C)[C@H](O)[C@@H](C)C/C(C)=C/C(=O)O)/C=C/[C@@H]1OC(=O)C=C[C@@H]1C [Leptomycin B]
[3]
  nuclear retention of the viral NP protein (vRNPs): highest retention rates
[4]
  nuclear retention of RanBP1: nuclear retention of RanBP1 was only detected for the Leptomycin B treated samples

## CC(=O)O[C@@H]1[C@@H](OC(C)=O)[C@@H](O)[C@H](Oc2c(-c3ccc(O)cc3)oc3cc(O)cc(O)c3c2=O)O[C@H]1C [SL0101-1]
WSN/H1N1
  EC50: 10.5 µM
[3]
  nuclear retention of the viral NP protein (vRNPs): nuclear retention
[4]
  nuclear retention of RanBP1: not detected
[5]; selective, reversible, ATP-competitive
  Ki: 1000 nM
[5]; with 10 μM ATP, read-out: IC50 RSK kinase activity
  IC50: 89 nM
MCF-7
  inhibition of proliferation of MCF-7: inhibit the proliferation of MCF-7
RSK substrate p140
  block of PDB-induced cellular phosphorylation of p140: specifically block

## CCCCCCCCCCCCCC(=O)O[C@@H]1[C@@H](C)[C@@]2(O)[C@@H](C=C(CO)C[C@]3(O)C(=O)C(C)=C[C@@H]23)[C@@H]2C(C)(C)[C@]12OC(C)=O [TPA]
ERK1/2 [6]
  nuclear accumulation of ERK1/2: 48.02%±2.25%
RSK2
  nuclear accumulation of RSK2: 34.89%±0.67%

## CC(C)CCN1c2nc(Nc3cc(F)c(O)c(F)c3)ncc2N(C)C(=O)C1C (centres unmarked) [BI-D1870]
WSN/H1N1
  EC50: 2.81 µM
[3]
  nuclear retention of the viral NP protein (vRNPs): negatively affected the vRNP nuclear export
[7]
  reduction of progeny viral titers, all tested viruses: 80 to 90%
[8]
  nuclear retention of newly synthesized vRNPs, all tested viruses: nuclear retention of newly synthesized vRNPs
GSK-3β
  GSK-3ß phosphorylation: concentration dependent reduction
vRNP-M1 interaction
  amount of M1 co-purified with Strep-PB2-vRNPs: decreased amount of M1
ERK1/2 [9]
  ERK1/2 phosphorylation state: induction of the ERK1/2 phosphorylation state
RSK1 [10]
  IC50: […]

## O=C(O)c1ccc(F)c(F)c1Nc1ccc(I)cc1Cl [ATR-002]
[3]
  nuclear retention of the viral NP protein (vRNPs): nuclear retention
[4]
  nuclear retention of RanBP1: not detected
